Values quoted from earlier work as cited in patent publication US9173863B2, “Antiviral compound and COX-2 inhibitor combination therapy for functional somatic syndromes, including combination of famciclovir and celecoxib” (INNOVATIVE MED CONCEPTS, LLC, priority 2012, dated 2015).

System: fibromyalgia patients
Conditions: valacyclovir alone

Q: With CC(C)[C@H](N)C(=O)OCCOCn1cnc2c(=O)[nH]c(N)nc21 [valacyclovir] as the compound, how does the “Treatment outcome in fibromyalgia patients” value read?
A: not successful
